Patent US9376429B2, “Sodium channel blockers, preparation method thereof and use thereof” (Daewoong Pharmaceutical Co., Ltd., priority 2012, dated 2016)

Target: T1, sodium ion channel (Nav1.7) (Homo sapiens, UniProt Q15858)
T1 construct: host or cells: HEK293
Assay: Blocking effect against sodium ion channel (Nav1.7), IonFlux16 auto patch clamp, hNav1.7 HEK293 cells
Format: cell-based
Settings: peak current after 50 seconds treatment, eight concentrations
Procedure, shortened: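 HEK293 cells stably expressing human Nav1.7 were recorded by IonFlux16 automated patch clamp in extracellular solution (pH 7.45, final DMSO ≤0.3%). Peak current was measured after 50 s exposure to each of eight compound concentrations and expressed as percent inhibition relative to pre-compound current.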

T1 sequence (Q15858 whole entry): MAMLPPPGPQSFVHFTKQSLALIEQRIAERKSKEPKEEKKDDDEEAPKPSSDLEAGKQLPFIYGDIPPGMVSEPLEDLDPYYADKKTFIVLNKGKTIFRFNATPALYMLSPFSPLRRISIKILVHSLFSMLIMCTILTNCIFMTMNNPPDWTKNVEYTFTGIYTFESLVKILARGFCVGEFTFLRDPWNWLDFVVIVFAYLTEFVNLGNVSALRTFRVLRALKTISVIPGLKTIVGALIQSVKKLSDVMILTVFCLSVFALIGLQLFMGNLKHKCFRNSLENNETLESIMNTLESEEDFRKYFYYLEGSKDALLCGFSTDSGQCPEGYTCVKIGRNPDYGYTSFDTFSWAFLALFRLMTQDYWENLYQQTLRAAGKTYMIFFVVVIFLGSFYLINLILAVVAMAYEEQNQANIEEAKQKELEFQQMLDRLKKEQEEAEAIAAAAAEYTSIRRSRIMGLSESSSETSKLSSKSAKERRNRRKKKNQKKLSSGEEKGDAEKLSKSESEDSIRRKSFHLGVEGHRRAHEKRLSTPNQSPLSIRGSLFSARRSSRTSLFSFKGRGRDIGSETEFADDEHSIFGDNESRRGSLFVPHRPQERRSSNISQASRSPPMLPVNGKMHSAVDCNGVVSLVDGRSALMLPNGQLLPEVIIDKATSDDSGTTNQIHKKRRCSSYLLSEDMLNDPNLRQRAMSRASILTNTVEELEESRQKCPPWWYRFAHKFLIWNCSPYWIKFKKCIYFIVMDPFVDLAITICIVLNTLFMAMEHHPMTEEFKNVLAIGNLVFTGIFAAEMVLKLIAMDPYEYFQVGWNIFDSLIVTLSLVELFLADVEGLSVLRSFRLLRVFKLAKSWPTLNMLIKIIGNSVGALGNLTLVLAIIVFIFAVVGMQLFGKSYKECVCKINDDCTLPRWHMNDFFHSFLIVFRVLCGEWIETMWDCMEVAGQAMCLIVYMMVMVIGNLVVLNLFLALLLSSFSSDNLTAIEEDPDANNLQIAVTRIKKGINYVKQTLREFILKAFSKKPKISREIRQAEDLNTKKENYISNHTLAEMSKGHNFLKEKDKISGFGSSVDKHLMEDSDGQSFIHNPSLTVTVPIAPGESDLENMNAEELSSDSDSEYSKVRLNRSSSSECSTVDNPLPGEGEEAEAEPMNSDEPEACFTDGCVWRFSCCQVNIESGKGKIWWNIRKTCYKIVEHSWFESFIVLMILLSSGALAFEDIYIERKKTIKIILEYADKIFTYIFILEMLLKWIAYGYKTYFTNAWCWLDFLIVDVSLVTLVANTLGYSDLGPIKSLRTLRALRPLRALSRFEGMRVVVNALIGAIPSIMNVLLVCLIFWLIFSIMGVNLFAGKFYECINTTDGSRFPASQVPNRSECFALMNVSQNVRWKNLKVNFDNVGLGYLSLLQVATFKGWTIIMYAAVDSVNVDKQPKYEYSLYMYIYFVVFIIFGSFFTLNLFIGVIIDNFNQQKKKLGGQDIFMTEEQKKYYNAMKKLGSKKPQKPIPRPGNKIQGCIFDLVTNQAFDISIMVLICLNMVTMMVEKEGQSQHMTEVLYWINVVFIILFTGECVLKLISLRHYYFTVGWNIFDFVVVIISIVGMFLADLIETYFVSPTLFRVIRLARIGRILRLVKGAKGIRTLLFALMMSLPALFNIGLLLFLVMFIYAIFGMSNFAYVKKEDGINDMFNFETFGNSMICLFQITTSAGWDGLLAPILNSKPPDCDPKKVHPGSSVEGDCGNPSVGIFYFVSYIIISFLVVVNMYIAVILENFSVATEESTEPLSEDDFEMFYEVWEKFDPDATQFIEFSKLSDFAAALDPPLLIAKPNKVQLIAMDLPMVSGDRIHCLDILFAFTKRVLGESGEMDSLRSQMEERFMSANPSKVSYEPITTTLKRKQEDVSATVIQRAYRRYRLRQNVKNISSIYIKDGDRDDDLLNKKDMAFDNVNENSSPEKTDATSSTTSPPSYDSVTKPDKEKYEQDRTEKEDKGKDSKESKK

With `Cn1cc(-c2cc(-c3ccc(F)nc3)ncc2Oc2cc(F)c(S(=O)(=O)Nc3cscn3)cc2Cl)cn1` [Example 70, 5-chloro-2-fluoro-4-((6′-fluoro-4-(1-methyl-1H-pyrazol-4-yl)-[2,3′-bipyridin]-5-yl)oxy)-N-(thiazol-4-yl)benzenesulfonamide 2,2,2-trifluoroacetate] the IC50 was greater than 100 nM.

`Cn1nccc1-c1cc(-c2cccc(F)c2)ncc1Oc1cc(F)c(S(=O)(=O)Nc2cscn2)cc1Cl` [Example 71, 5-chloro-2-fluoro-4-((6-(3-fluorophenyl)-4-(1-methyl-1H-pyrazol-5-yl)pyridin-3-yl)oxy)-N-(thiazol-4-yl)benzenesulfonamide] showed an IC50 greater than 100 nM.

`O=S(=O)(Nc1cscn1)c1cc(Cl)c(Oc2cnc(-c3cccc(F)c3)cc2-c2ccnc(N3CCNCC3)n2)cc1F` [Example 72, 5-chloro-2-fluoro-4-((6-(3-fluorophenyl)-4-(2-(piperazin-1-yl)pyrimidin-4-yl)pyridin-3-yl)oxy)-N-(thiazol-4-yl)benzenesulfonamide] was tested, and the IC50 was greater than 100 nM.

In the case of `O=S(=O)(Nc1nccs1)c1cc(Cl)c(Oc2cnc(-c3cccc(F)c3)cc2-c2cccnc2)cc1F` [Example 73, 5-chloro-2-fluoro-4-((6′-(3-fluorophenyl)-[3,4′-bipyridin]-3′-yl)oxy)-N-(thiazol-2-yl)benzenesulfonamide], the IC50 is reported as greater than 100 nM.

Compound `O=S(=O)(Nc1cscn1)c1cc(Cl)c(Oc2cnc(-c3cccc(F)c3)cc2-c2cccnc2)cc1F` [Example 74, 5-chloro-2-fluoro-4-((6′-(3-fluorophenyl)-[3,4′-bipyridin]-3′-yl)oxy)-N-(thiazol-4-yl)benzenesulfonamide] has an IC50 greater than 100 nM.

Work on `O=S(=O)(Nc1cscn1)c1cc(Cl)c(Oc2cnc(-c3ccnc(F)c3)cc2-c2cccnc2)cc1F` [Example 75, 5-chloro-2-fluoro-4-((2″-fluoro-[3,4′:2′,4″-terpyridin]-5′-yl)oxy)-N-(thiazol-4-yl)benzenesulfonamide] yielded an IC50 greater than 100 nM.

`O=S(=O)(Nc1cscn1)c1cc(Cl)c(Oc2cnc(-c3cccc(F)c3)cc2-c2cncnc2)cc1F` [Example 76, 5-chloro-2-fluoro-4-((6-(3-fluorophenyl)-4-(pyrimidin-5-yl)pyridin-3-yl)oxy)-N-(thiazol-4-yl)benzenesulfonamide] gave an IC50 greater than 100 nM.

In the case of `O=S(=O)(Nc1cscn1)c1cc(Cl)c(Oc2cnc(-c3ccnc(F)c3)cc2-c2cncnc2)cc1F` [Example 77, 5-chloro-2-fluoro-4-((2′-fluoro-4-(pyrimidin-5-yl)-[2,4′-bipyridin]-5-yl)oxy)-N-(thiazol-4-yl)benzenesulfonamide], the IC50 is reported as greater than 100 nM.

With `O=S(=O)(Nc1cscn1)c1cc(Cl)c(Oc2cnc(-c3cccc(F)c3)cc2-c2cn[nH]c2)cc1F` [Example 78, 5-chloro-2-fluoro-4-((6-(3-fluorophenyl)-4-(1H-pyrazol-4-yl)pyridin-3-yl)oxy)-N-(thiazol-4-yl)benzenesulfonamide] the IC50 was greater than 100 nM.

For `O=S(=O)(Nc1cscn1)c1cc(Cl)c(Oc2cnc(-c3cccc(F)c3)cc2-c2ccnc(F)c2)cc1F` [Example 79, 5-chloro-2-fluoro-4-((2′-fluoro-6-(3-fluorophenyl)-[4,4′-bipyridin]-3-yl)oxy)-N-(thiazol-4-yl)benzenesulfonamide], the IC50 was greater than 100 nM.

In the case of `O=S(=O)(Nc1cscn1)c1cc(Cl)c(Oc2cnc(-c3ccc(F)c(F)c3)cc2-c2ccnc(F)c2)cc1F` [Example 80, 5-chloro-4-((6-(3,4-difluorophenyl)-2′-fluoro-[4,4′-bipyridin]-3-yl)oxy)-2-fluoro-N-(thiazol-4-yl)benzenesulfonamide], the IC50 is reported as greater than 100 nM.

With `O=S(=O)(Nc1cscn1)c1cc(Cl)c(Oc2cnc(-c3cc(Cl)ccc3F)cc2-c2cccnc2)cc1F` [Example 81, 5-chloro-4-((6′-(5-chloro-2-fluorophenyl)-[3,4′-bipyridin]-3′-yl)oxy)-2-fluoro-N-(thiazol-4-yl)benzenesulfonamide] the IC50 was greater than 100 nM.

Work on `O=S(=O)(Nc1cscn1)c1cc(Cl)c(Oc2cnc(-c3ccc(F)c(F)c3)cc2-c2cccnc2)cc1F` [Example 82, 5-chloro-4-((6′-(3,4-difluorophenyl)-[3,4′-bipyridin]-3′-yl)oxy)-2-fluoro-N-(thiazol-4-yl)benzenesulfonamide] yielded an IC50 greater than 100 nM.

For `N#Cc1cc(S(=O)(=O)Nc2cscn2)ccc1Oc1cnc(-c2cccc(F)c2)cc1-c1cn[nH]c1` [Example 83, 3-cyano-4-((6-(3-fluorophenyl)-4-(1H-pyrazol-4-yl)pyridin-3-yl)oxy)-N-(thiazol-4-yl)benzenesulfonamide], the IC50 was greater than 100 nM.

`N#Cc1cc(S(=O)(=O)Nc2cscn2)ccc1Oc1cnc(-c2cccc(F)c2)cc1-c1cccnc1` [Example 84, 3-cyano-4-((6′-(3-fluorophenyl)-[3,4′-bipyridin]-3′-yl)oxy)-N-(thiazol-4-yl)benzenesulfonamide] showed an IC50 greater than 100 nM.

`N#Cc1cc(S(=O)(=O)Nc2cscn2)ccc1Oc1cnc(-c2ccc(F)c(F)c2)cc1-c1cccnc1` [Example 85, 3-cyano-4-((6′-(3,4-difluorophenyl)-[3,4′-bipyridin]-3′-yl)oxy)-N-(thiazol-4-yl)benzenesulfonamide] gave an IC50 greater than 100 nM.

`N#Cc1cc(S(=O)(=O)Nc2cscn2)ccc1Oc1cnc(-c2ccc(C(F)(F)F)c(F)c2)cc1-c1cccnc1` [Example 86, 3-cyano-4-((6′-(3-fluoro-4-(trifluoromethyl)phenyl)-[3,4′-bipyridin]-3′-yl)oxy)-N-(thiazol-4-yl)benzenesulfonamide] showed an IC50 greater than 100 nM.

`O=S(=O)(Nc1cscn1)c1cc(F)c(Oc2cnc(-c3cccc(F)c3)cc2-c2cccnc2)cc1F` [Example 87, 2,5-difluoro-4-((6′-(3-fluorophenyl)-[3,4′-bipyridin]-3′-yl)oxy)-N-(thiazol-4-yl)benzenesulfonamide] was tested, and the IC50 was greater than 100 nM.

For `O=S(=O)(Nc1cscn1)c1cc(F)c(Oc2cnc(-c3ccc(F)c(F)c3)cc2-c2cccnc2)cc1F` [Example 88, 4-((6′-(3,4-difluorophenyl)-[3,4′-bipyridin]-3′-yl)oxy)-2,5-difluoro-N-(thiazol-4-yl)benzenesulfonamide], the IC50 was greater than 100 nM.

For `O=S(=O)(Nc1cscn1)c1cc(F)c(Oc2cnc(-c3ccc(C(F)(F)F)c(F)c3)cc2-c2cccnc2)cc1F` [Example 89, 2,5-difluoro-4-((6′-(3-fluoro-4-(trifluoromethyl)phenyl)-[3,4′-bipyridin]-3′-yl)oxy)-N-(thiazol-4-yl)benzenesulfonamide], the IC50 was greater than 100 nM.

Compound `N#Cc1cc(S(=O)(=O)Nc2cscn2)ccc1Oc1cnc(-c2ccc(F)cc2)cc1-c1cn[nH]c1` [Example 90, 3-cyano-4-((6-(4-fluorophenyl)-4-(1H-pyrazol-4-yl)pyridin-3-yl)oxy)-N-(thiazol-4-yl)benzenesulfonamide] has an IC50 greater than 100 nM.

In the case of `N#Cc1cc(S(=O)(=O)Nc2cscn2)ccc1Oc1cnc(-c2ccc(F)c(F)c2)cc1-c1cn[nH]c1` [Example 91, 3-cyano-4-((6-(3,4-difluorophenyl)-4-(1H-pyrazol-4-yl)pyridin-3-yl)oxy)-N-(thiazol-4-yl)benzenesulfonamide], the IC50 is reported as greater than 100 nM.

`N#Cc1cc(S(=O)(=O)Nc2cscn2)ccc1Oc1cnc(-c2cccc(F)c2)cc1-c1cncnc1` [Example 92, 3-cyano-4-((6-(3-fluorophenyl)-4-(pyrimidin-5-yl)pyridin-3-yl)oxy)-N-(thiazol-4-yl)benzenesulfonamide] was tested, and the IC50 was greater than 100 nM.
